# Test results taken from BindingDB's records for doi:10.1021/acs.jmedchem.9b02176 (Glaxosmithkline, 2020).
# Experiments:
# [1] = Inhibition of NS5A in HCV genotype 1a infected in […] cells assessed as reduction in viral replication incubated for 48 hrs by luciferase reporter gene assay
# [2] = Inhibition of NS5A in HCV genotype 1b infected in […] cells assessed as reduction in viral replication incubated for 48 hrs by luciferase reporter gene assay
# [3] = Inhibition of NS5A in HCV genotype 2a con infected in […] cells assessed as reduction in viral replication incubated for 48 hrs by luciferase reporter gene assay
# [4] = Inhibition of NS5A in patient-derived HCV genotype 3a infected in […] cells assessed as reduction in viral replication incubated for 48 hrs by luciferase reporter gene assay
# [5] = Inhibition of NS5A in patient-derived HCV genotype 2a infected in […] cells assessed as reduction in viral replication incubated for 48 hrs by luciferase reporter gene assay
# [6] = Inhibition of NS5A in HCV genotype 3a con infected in […] cells assessed as reduction in viral replication incubated for 48 hrs by luciferase reporter gene assay
Structure (SMILES),EC50 [1] [nM],EC50 [2] [nM],EC50 [3] [nM],EC50 [4] [pM],EC50 [5] [nM],EC50 [6] [nM]
COC(=O)N[C@H](C(=O)N1CCC[C@H]1c1ncc(-c2ccc3c(c2)-c2ccc(-c4cnc([C@@H]5CCCN5C(=O)[C@@H](c5ccccc5)N(C)C)[nH]4)cc2-3)[nH]1)C(C)C,0.053,0.014,1.47,,,
COC(=O)N[C@H](C(=O)N1[C@H](c2ncc(-c3ccc4c(c3)-c3ccc(-c5cnc([C@@H]6C[C@@H]7CCC[C@@H]7N6C(=O)[C@@H](NC(=O)OC)[C@@H](C)OC)[nH]5)cc3-4)[nH]2)C[C@@H]2CCC[C@@H]21)[C@@H](C)O,0.014,0.008,0.188,6,1.03,
COC(=O)N[C@@H](CO)C(=O)N1[C@H](c2ncc(-c3ccc4c(c3)-c3ccc(-c5cnc([C@@H]6C[C@@H]7CCC[C@@H]7N6C(=O)[C@H](CO)NC(=O)OC)[nH]5)cc3-4)[nH]2)C[C@@H]2CCC[C@@H]21,0.055,0.009,8.91,,,
COC(=O)N[C@H](C(=O)N1CCC[C@H]1c1ncc(-c2ccc3c(c2)-c2ccc(-c4cnc([C@@H]5CCCN5C(=O)[C@@H](NC(=O)OC)C(C)C)[nH]4)cc2-3)[nH]1)C(C)C,0.044,0.008,32,18,48.8,< 0.025
COC(=O)N[C@H](C(=O)N1[C@H](c2ncc(-c3ccc4c(c3)Cc3cc(-c5cnc([C@@H]6C[C@@H]7CCC[C@@H]7N6C(=O)[C@@H](NC(=O)OC)[C@@H](C)OC)[nH]5)ccc3-4)[nH]2)C[C@@H]2CCC[C@@H]21)[C@@H](C)OC,0.041,0.022,,,,
COC(=O)N[C@H](C(=O)N1[C@H](c2ncc(-c3ccc4c(c3)-c3ccc(-c5cnc([C@@H]6C[C@@H]7CCC[C@@H]7N6C(=O)[C@@H](NC(=O)OC)[C@@H](C)OC)[nH]5)cc3-4)[nH]2)C[C@@H]2CCC[C@@H]21)[C@@H](C)OC,0.01,0.008,0.115,3,0.664,0.02
COC(=O)N[C@H](C(=O)N1[C@H](c2ncc(-c3ccc4c(c3)-c3ccc(-c5cnc([C@@H]6C[C@@H]7CCC[C@@H]7N6C(=O)[C@@H](NC(=O)OC)[C@H](C)O)[nH]5)cc3-4)[nH]2)C[C@@H]2CCC[C@@H]21)[C@H](C)O,0.302,0.01,35.1,,,
COC(=O)N[C@H](C(=O)N1[C@H](c2ncc(-c3ccc4c(c3)-c3ccc(-c5cnc([C@@H]6C[C@@H]7CCC[C@@H]7N6C(=O)[C@@H](NC(=O)OC)[C@@H](C)O)[nH]5)cc3-4)[nH]2)C[C@@H]2CCC[C@@H]21)C(C)C,0.013,0.006,0.97,,,
COC(=O)N[C@H](C(=O)N1[C@H](c2ncc(-c3ccc4c(c3)-c3ccc(-c5cnc([C@@H]6C[C@@H]7CCCC[C@@H]7N6C(=O)[C@@H](NC(=O)OC)C(C)C)[nH]5)cc3-4)[nH]2)C[C@@H]2CCCC[C@@H]21)C(C)C,0.02,,3.33,,,
COC(=O)N[C@H](C(=O)N1CCC[C@H]1c1ncc(-c2ccc3c(c2)-c2ccc(-c4cnc([C@@H]5C[C@@H]6CCCC[C@@H]6N5C(=O)[C@@H](NC(=O)OC)C(C)C)[nH]4)cc2-3)[nH]1)C(C)C,0.009,,12.2,,,
CN(C)[C@@H](C(=O)N1CCC[C@H]1c1ncc(-c2ccc3c(c2)-c2ccc(-c4cnc([C@@H]5CCCN5C(=O)[C@@H](c5ccccc5)N(C)C)[nH]4)cc2-3)[nH]1)c1ccccc1,0.248,0.081,0.327,,,
COC(=O)N[C@H](C(=O)N1[C@H](c2ncc(-c3ccc4c(c3)-c3ccc(-c5cnc([C@@H]6C[C@@H]7CCC[C@@H]7N6C(=O)[C@@H](NC(=O)OC)C(C)C)[nH]5)cc3-4)[nH]2)C[C@@H]2CCC[C@@H]21)C(C)C,0.01,,4.52,,,
COC(=O)N[C@H](C(=O)N1[C@H](c2ncc(-c3ccc4c(c3)Cc3ccc(-c5cnc([C@@H]6C[C@@H]7CCC[C@@H]7N6C(=O)[C@@H](NC(=O)OC)[C@@H](C)OC)[nH]5)cc3C4)[nH]2)C[C@@H]2CCC[C@@H]21)[C@@H](C)OC,0.03,0.02,,,,
COC(=O)N[C@H](C(=O)N1[C@H](c2ncc(-c3ccc4c5ccc(-c6cnc([C@@H]7C[C@@H]8CCC[C@@H]8N7C(=O)[C@@H](NC(=O)OC)[C@@H](C)OC)[nH]6)cc5n(C)c4c3)[nH]2)C[C@@H]2CCC[C@@H]21)[C@@H](C)OC,0.148,0.028,,,,
COC(=O)N[C@H](C(=O)N1[C@H](c2ncc(-c3ccc4c(c3)S(=O)(=O)c3cc(-c5cnc([C@@H]6C[C@@H]7CCC[C@@H]7N6C(=O)[C@@H](NC(=O)OC)[C@@H](C)OC)[nH]5)ccc3-4)[nH]2)C[C@@H]2CCC[C@@H]21)[C@@H](C)OC,0.081,0.028,,,,
COC(=O)N[C@H](C(=O)N1[C@H](c2ncc(-c3ccc4c(c3)Oc3ccc(-c5cnc([C@@H]6C[C@@H]7CCC[C@@H]7N6C(=O)[C@@H](NC(=O)OC)[C@@H](C)OC)[nH]5)cc3O4)[nH]2)C[C@@H]2CCC[C@@H]21)[C@@H](C)OC,0.012,0.007,,,,
COC(=O)N[C@H](C(=O)N1[C@H](c2ncc(-c3ccc4c(c3)-c3ccc(-c5cnc([C@@H]6C[C@@H]7CCC[C@@H]7N6C(=O)[C@@H](NC(=O)OC)[C@@H](C)O)[nH]5)cc3-4)[nH]2)C[C@@H]2CCC[C@@H]21)[C@@H](C)O,0.011,,0.141,5,1.06,0.018
COC(=O)N[C@H](C(=O)N1[C@H](c2ncc(-c3ccc4c(c3)C(F)(F)c3cc(-c5cnc([C@@H]6C[C@@H]7CCC[C@@H]7N6C(=O)[C@@H](NC(=O)OC)[C@@H](C)OC)[nH]5)ccc3-4)[nH]2)C[C@@H]2CCC[C@@H]21)[C@@H](C)OC,0.029,0.017,,,,
COC(=O)N[C@H](C(=O)N1[C@H](c2ncc(-c3ccc4c(c3)CCc3cc(-c5cnc([C@@H]6C[C@@H]7CCC[C@@H]7N6C(=O)[C@@H](NC(=O)OC)[C@@H](C)OC)[nH]5)ccc3-4)[nH]2)C[C@@H]2CCC[C@@H]21)[C@@H](C)OC,0.017,0.015,,,,
COC(=O)N[C@@H](CO)C(=O)N1[C@H](c2ncc(-c3ccc4c(c3)-c3ccc(-c5cnc([C@@H]6C[C@@H]7CCC[C@@H]7N6C(=O)[C@@H](NC(=O)OC)C(C)C)[nH]5)cc3-4)[nH]2)C[C@@H]2CCC[C@@H]21,0.02,,4.37,,,
COC(=O)N[C@H](C(=O)N1CCC[C@H]1c1nc(-c2ccc(-c3ccc(-c4c[nH]c([C@@H]5CCCN5C(=O)[C@@H](NC(=O)OC)C(C)C)n4)cc3)cc2)c[nH]1)C(C)C [BMS-790052],0.032,0.008,52.8,115,49.4,0.412
